How the values were obtained:
Experiment in all cases: relative viability (nuclei count vs DMSO), 5 days (fraction); higher = more cells survive
[1] = test system: IA-LM
Procedure, shortened: (§1)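 Relative viability was taken as the ratio of nuclei in treated wells to nuclei in vehicle wells. Lung cancer cell lines in 1536-well plates received compounds by pin tool one day after seeding, either one drug alone or a fixed anchor-drug dose plus five library-drug doses (not always all listed) in √10 steps. Nuclei were counted on 4× images after 5 days of treatment, and values are medians of duplicate plates.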

[2] = test system: NCI-H1703
Procedure, shortened: as §1

[3] = test system: NCI-H1299
Procedure, shortened: as §1

[4] = test system: NCI-H1437
Procedure, shortened: as §1

[5] = test system: COR-L23
Procedure, shortened: as §1

[6] = test system: EBC-1
Procedure, shortened: as §1

[7] = test system: A549
Procedure, shortened: as §1

[8] = test system: Calu-6
Procedure, shortened: as §1

[9] = test system: ABC-1
Procedure, shortened: as §1

[10] = test system: SW 1573
Procedure, shortened: as §1

[11] = test system: SK-MES-1
Procedure, shortened: as §1

[12] = test system: NCI-H1651
Procedure, shortened: as §1

SMILES: CC(=O)O[C@@]12CO[C@@H]1C[C@H](O)[C@@]1(C)C(=O)[C@H](O)C3=C(C)[C@@H](OC(=O)[C@H](O)[C@@H](NC(=O)OC(C)(C)C)c4ccccc4)C[C@@](O)([C@@H](OC(=O)c4ccccc4)[C@H]21)C3(C)C [Docetaxel] + CS(=O)(=O)CCNCc1ccc(-c2ccc3ncnc(Nc4ccc(OCc5cccc(F)c5)c(Cl)c4)c3c2)o1 [Lapatinib] (partner 2 µM)
- relative viability ([1]; first compound 0.0002 µM): 0.46
- relative viability ([1]; first compound 0.000632 µM): 0.153
- relative viability ([1]; first compound 0.002 µM): 0.0797
- relative viability ([1]; first compound 0.006325 µM): 0.069
- relative viability ([1]; first compound 0.02 µM): 0.068
- relative viability ([2]; first compound 0.0002 µM): 1.1
- relative viability ([2]; first compound 0.000632 µM): 0.664
- relative viability ([2]; first compound 0.002 µM): 0.219
- relative viability ([2]; first compound 0.006325 µM): 0.157
- relative viability ([2]; first compound 0.02 µM): 0.148
- relative viability ([3]; first compound 0.0002 µM): 0.935
- relative viability ([3]; first compound 0.000632 µM): 0.968
- relative viability ([3]; first compound 0.002 µM): 0.704
- relative viability ([3]; first compound 0.006325 µM): 0.467
- relative viability ([3]; first compound 0.02 µM): 0.298
- relative viability ([4]; first compound 0.0002 µM): 0.663
- relative viability ([4]; first compound 0.000632 µM): 0.508
- relative viability ([4]; first compound 0.002 µM): 0.185
- relative viability ([4]; first compound 0.006325 µM): 0.12
- relative viability ([4]; first compound 0.02 µM): 0.089
- relative viability ([5]; first compound 0.0002 µM): 0.993
- relative viability ([5]; first compound 0.000632 µM): 0.843
- relative viability ([5]; first compound 0.002 µM): 0.625
- relative viability ([5]; first compound 0.006325 µM): 0.14
- relative viability ([5]; first compound 0.02 µM): 0.107
- relative viability ([6]; first compound 0.0002 µM): 0.201
- relative viability ([6]; first compound 0.000632 µM): 0.227
- relative viability ([6]; first compound 0.002 µM): 0.228
- relative viability ([6]; first compound 0.006325 µM): 0.197
- relative viability ([6]; first compound 0.02 µM): 0.195
- relative viability ([7]; first compound 0.0002 µM): 0.972
- relative viability ([7]; first compound 0.002 µM): 0.0898
- relative viability ([7]; first compound 0.006325 µM): 0.0769
- relative viability ([7]; first compound 0.02 µM): 0.0547
- relative viability ([8]; first compound 0.0002 µM): 0.982
- relative viability ([8]; first compound 0.000632 µM): 0.879
- relative viability ([8]; first compound 0.002 µM): 0.286
- relative viability ([8]; first compound 0.006325 µM): 0.125
- relative viability ([8]; first compound 0.02 µM): 0.112
- relative viability ([9]; first compound 0.0002 µM): 1.21
- relative viability ([9]; first compound 0.000632 µM): 1.12
- relative viability ([9]; first compound 0.002 µM): 1.14
- relative viability ([9]; first compound 0.006325 µM): 0.797
- relative viability ([9]; first compound 0.02 µM): 0.577
- relative viability ([10]; first compound 0.0002 µM): 1.06
- relative viability ([10]; first compound 0.000632 µM): 0.946
- relative viability ([10]; first compound 0.002 µM): 0.321
- relative viability ([10]; first compound 0.006325 µM): 0.256
- relative viability ([10]; first compound 0.02 µM): 0.192
- relative viability ([11]; first compound 0.0002 µM): 0.437
- relative viability ([11]; first compound 0.000632 µM): 0.633
- relative viability ([11]; first compound 0.002 µM): 0.378
- relative viability ([11]; first compound 0.02 µM): 0.159
- relative viability ([12]; first compound 0.0002 µM): 0.724
- relative viability ([12]; first compound 0.000632 µM): 0.496
- relative viability ([12]; first compound 0.002 µM): 0.161
- relative viability ([12]; first compound 0.006325 µM): 0.11
- relative viability ([12]; first compound 0.02 µM): 0.101

SMILES: CC(=O)O[C@@]12CO[C@@H]1C[C@H](O)[C@@]1(C)C(=O)[C@H](O)C3=C(C)[C@@H](OC(=O)[C@H](O)[C@@H](NC(=O)OC(C)(C)C)c4ccccc4)C[C@@](O)([C@@H](OC(=O)c4ccccc4)[C@H]21)C3(C)C [Docetaxel] + Cc1nc(NC(=O)N2CCC[C@H]2C(N)=O)sc1-c1ccnc(C(C)(C)C(F)(F)F)c1 [Alpelisib] (partner 2 µM)
- relative viability ([1]; first compound 0.0002 µM): 0.595
- relative viability ([1]; first compound 0.000632 µM): 0.232
- relative viability ([1]; first compound 0.002 µM): 0.116
- relative viability ([1]; first compound 0.006325 µM): 0.0821
- relative viability ([1]; first compound 0.02 µM): 0.0716
- relative viability ([2]; first compound 0.0002 µM): 0.406
- relative viability ([2]; first compound 0.000632 µM): 0.442
- relative viability ([2]; first compound 0.006325 µM): 0.125
- relative viability ([2]; first compound 0.02 µM): 0.109
- relative viability ([3]; first compound 0.0002 µM): 1.05
- relative viability ([3]; first compound 0.000632 µM): 1.06
- relative viability ([3]; first compound 0.002 µM): 1.01
- relative viability ([3]; first compound 0.006325 µM): 0.605
- relative viability ([3]; first compound 0.02 µM): 0.431
- relative viability ([4]; first compound 0.0002 µM): 0.888
- relative viability ([4]; first compound 0.000632 µM): 0.759
- relative viability ([4]; first compound 0.002 µM): 0.156
- relative viability ([4]; first compound 0.006325 µM): 0.124
- relative viability ([4]; first compound 0.02 µM): 0.0738
- relative viability ([5]; first compound 0.0002 µM): 0.65
- relative viability ([5]; first compound 0.000632 µM): 0.718
- relative viability ([5]; first compound 0.002 µM): 0.261
- relative viability ([5]; first compound 0.006325 µM): 0.0995
- relative viability ([5]; first compound 0.02 µM): 0.0707
- relative viability ([6]; first compound 0.0002 µM): 0.797
- relative viability ([6]; first compound 0.000632 µM): 0.576
- relative viability ([6]; first compound 0.002 µM): 0.275
- relative viability ([6]; first compound 0.006325 µM): 0.267
- relative viability ([6]; first compound 0.02 µM): 0.174
- relative viability ([7]; first compound 0.0002 µM): 0.752
- relative viability ([7]; first compound 0.000632 µM): 0.668
- relative viability ([7]; first compound 0.002 µM): 0.0866
- relative viability ([7]; first compound 0.006325 µM): 0.0749
- relative viability ([7]; first compound 0.02 µM): 0.034
- relative viability ([8]; first compound 0.0002 µM): 1.03
- relative viability ([8]; first compound 0.000632 µM): 0.99
- relative viability ([8]; first compound 0.002 µM): 0.432
- relative viability ([8]; first compound 0.006325 µM): 0.147
- relative viability ([8]; first compound 0.02 µM): 0.115
- relative viability ([9]; first compound 0.0002 µM): 0.826
- relative viability ([9]; first compound 0.000632 µM): 1.07
- relative viability ([9]; first compound 0.002 µM): 0.493
- relative viability ([9]; first compound 0.006325 µM): 0.464
- relative viability ([9]; first compound 0.02 µM): 0.337
- relative viability ([10]; first compound 0.0002 µM): 0.739
- relative viability ([10]; first compound 0.000632 µM): 0.604
- relative viability ([10]; first compound 0.002 µM): 0.29
- relative viability ([10]; first compound 0.006325 µM): 0.233
- relative viability ([10]; first compound 0.02 µM): 0.185
- relative viability ([11]; first compound 0.0002 µM): 0.932
- relative viability ([11]; first compound 0.000632 µM): 0.892
- relative viability ([11]; first compound 0.002 µM): 0.484
- relative viability ([11]; first compound 0.006325 µM): 0.224
- relative viability ([11]; first compound 0.02 µM): 0.104
- relative viability ([12]; first compound 0.0002 µM): 0.811
- relative viability ([12]; first compound 0.000632 µM): 0.944
- relative viability ([12]; first compound 0.002 µM): 0.248
- relative viability ([12]; first compound 0.006325 µM): 0.108
- relative viability ([12]; first compound 0.02 µM): 0.111

SMILES: COc1cc2nccc(Oc3ccc(NC(=O)Nc4cc(C)on4)c(Cl)c3)c2cc1OC [Tivozanib] + CS(=O)(=O)CCNCc1ccc(-c2ccc3ncnc(Nc4ccc(OCc5cccc(F)c5)c(Cl)c4)c3c2)o1 [Lapatinib] (partner 2 µM)
- relative viability ([1]; first compound 0.01581 µM): 0.564
- relative viability ([1]; first compound 0.05 µM): 0.771
- relative viability ([1]; first compound 0.1581 µM): 0.582
- relative viability ([1]; first compound 0.5 µM): 0.56
- relative viability ([2]; first compound 0.005 µM): 0.44
- relative viability ([2]; first compound 0.01581 µM): 0.255
- relative viability ([2]; first compound 0.05 µM): 0.271
- relative viability ([2]; first compound 0.1581 µM): 0.305
- relative viability ([2]; first compound 0.5 µM): 0.259
- relative viability ([3]; first compound 0.005 µM): 0.921
- relative viability ([3]; first compound 0.01581 µM): 1.03
- relative viability ([3]; first compound 0.05 µM): 0.933
- relative viability ([3]; first compound 0.1581 µM): 0.936
- relative viability ([3]; first compound 0.5 µM): 0.917
- relative viability ([4]; first compound 0.005 µM): 0.771
- relative viability ([4]; first compound 0.01581 µM): 0.8
- relative viability ([4]; first compound 0.05 µM): 0.777
- relative viability ([4]; first compound 0.1581 µM): 0.824
- relative viability ([4]; first compound 0.5 µM): 0.708
- relative viability ([5]; first compound 0.005 µM): 0.902
- relative viability ([5]; first compound 0.01581 µM): 0.99
- relative viability ([5]; first compound 0.05 µM): 0.991
- relative viability ([5]; first compound 0.1581 µM): 0.928
- relative viability ([5]; first compound 0.5 µM): 0.67
- relative viability ([6]; first compound 0.005 µM): 0.231
- relative viability ([6]; first compound 0.01581 µM): 0.216
- relative viability ([6]; first compound 0.05 µM): 0.172
- relative viability ([6]; first compound 0.1581 µM): 0.209
- relative viability ([6]; first compound 0.5 µM): 0.204
- relative viability ([7]; first compound 0.005 µM): 1.09
- relative viability ([7]; first compound 0.01581 µM): 0.987
- relative viability ([7]; first compound 0.05 µM): 0.944
- relative viability ([7]; first compound 0.1581 µM): 1.03
- relative viability ([7]; first compound 0.5 µM): 0.913
- relative viability ([8]; first compound 0.005 µM): 1.01
- relative viability ([8]; first compound 0.01581 µM): 1.08
- relative viability ([8]; first compound 0.05 µM): 1.07
- relative viability ([8]; first compound 0.1581 µM): 1.13
- relative viability ([8]; first compound 0.5 µM): 1.14
- relative viability ([9]; first compound 0.005 µM): 1.33
- relative viability ([9]; first compound 0.01581 µM): 1.15
- relative viability ([9]; first compound 0.05 µM): 1.26
- relative viability ([9]; first compound 0.1581 µM): 1.16
- relative viability ([9]; first compound 0.5 µM): 1.22
- relative viability ([10]; first compound 0.005 µM): 0.909
- relative viability ([10]; first compound 0.01581 µM): 1.25
- relative viability ([10]; first compound 0.05 µM): 1.16
- relative viability ([10]; first compound 0.1581 µM): 0.856
- relative viability ([10]; first compound 0.5 µM): 1.08
- relative viability ([11]; first compound 0.005 µM): 0.421
- relative viability ([11]; first compound 0.01581 µM): 0.446
- relative viability ([11]; first compound 0.05 µM): 0.5
- relative viability ([11]; first compound 0.1581 µM): 0.437
- relative viability ([11]; first compound 0.5 µM): 0.509
- relative viability ([12]; first compound 0.005 µM): 0.744
- relative viability ([12]; first compound 0.01581 µM): 0.864
- relative viability ([12]; first compound 0.05 µM): 0.863
- relative viability ([12]; first compound 0.1581 µM): 0.653
- relative viability ([12]; first compound 0.5 µM): 0.634

From the supplement of paper PMC10307832
